Article PMC11397566, “Cytotoxic Natural Products from the Jurassic Relict Osmunda regalis L” (Molecules, 2024)

Experiments:
Format in all cases: cell-based
MOLM13 cells = assay: Cytotoxicity (WST-1 metabolic activity) towards AML cell line MOLM13; conditions: for cytotoxic activity against the MOLM13 cells (in words): compared with a DMSO control, 72 hours of incubation; for EC50: Homo sapiens, MOLM-13, metabolic activity (WST-1) after 72 h of incubation, compounds diluted in DMSO, three independent experiments
Procedure: (§1) The pure compounds were diluted to create stock solutions with a final concentration of 20 mM in DMSO (Dimethyl Sulfoxide—for molecular biology, Sigma-Aldrich, Saint Louise, MO, USA). Normal rat kidney epithelial cells (NRK, ATCC no.: CRL-6509) and rat cardiomyoblasts (H9c2, ATCC no.: CRL-1446) were grown in DMEM medium enriched with 10% foetal bovine serum (FBS, Invitrogen, Carlsbad, CA, USA). Once the cells achieved 80% confluence, they were gently detached using trypsin treatment (0.33 mg/mL trypsin for 5 min at 37 °C), centrifuged (160× g, 4 min), and then reseeded in fresh medium to reach 25% confluence.
The AML cell line MOLM13 (DSMZ no.: ACC554, [39]) was maintained in RPMI-1640 medium supplemented with 10% FBS and 8 mM L-glutamine (Sigma Life Science, Dorset, UK). The cells were kept in suspension cultures with a density of 150,000 to 700,000 cells/mL.
(§2) All media were further supplemented with 1 IU/mL penicillin and 1 mg/mL streptomycin (both from Cambrex, Liège, Belgium) and incubated in a humidified environment (37 °C, 5% CO2). For the cytotoxicity experiments with compounds 11 to 15, the NRK and H9c2 cells were seeded in 96-well tissue culture plates (4000 cells/well, 0.1 mL) and left overnight to attach before treatments. The MOLM13 cells were seeded in 96-well tissue culture plates at 20,000 cells/well in 0.1 mL on the day of the experiment.
(§3) Compounds dissolved in DMSO were added to the cells, and the plates were incubated for 72 hours before adding the tetrazolium salt WST-1 according to the manufacturer’s instructions (Roche Diagnostics GmbH, Mannheim, Germany). The plates were further incubated for two hours before the signal was recorded at 450 nm with reference at 620 nm. For black subtraction, medium and plant compounds were added to WST-1. This procedure was performed after 24 and 72 h.
(§4) After recording WST-1, the cells were next fixed with 2% buffered formaldehyde (pH 7.4) with 0.01 mg/mL of the DNA-specific fluorescent dye, […]. As previously described, the presence of dead (apoptotic or necrotic) cells was verified by differential interference contrast and fluorescence microscopy.
(§5) EC50 values were determined by a four-parameter regression analysis as described by Viktorsson et al., using SigmaPlot ver. 14.0 (Systat Software Inc., San Jose, CA, USA).

H9c2 cells = assay: Cytotoxicity (WST-1 metabolic activity) towards rat cardiomyoblasts H9c2; conditions: metabolic activity (WST-1) after 72 h of incubation, compounds diluted in DMSO, three independent experiments
Procedure: as §1, with “confluence. […]” for “confluence.”
Compounds dissolved in DMSO were added to the cells, and the plates were incubated for 72 hours before adding the tetrazolium salt WST-1 according to the manufacturer’s instructions (Roche Diagnostics GmbH, Mannheim, Germany). The plates were further incubated for two hours before the signal was recorded at 450 nm with reference at 620 nm. […]
as §4
EC50 values were determined by a four-parameter regression analysis as described by Viktorsson et al., using SigmaPlot ver. […]

NRK cells = assay: Cytotoxicity (WST-1 metabolic activity) towards normal rat kidney epithelial cells NRK; conditions: for EC50: Rattus norvegicus, NRK, metabolic activity (WST-1) after 72 h of incubation, compounds diluted in DMSO, three experiments, "-" = no data available due to low or no toxicity
Procedure: as §1, §2, §3, §4, §5

SMILES | cytotoxic activity against the MOLM13 cells (in words) (MOLM13 cells) | also measured
CC1OC(OC2C(OC3C(Oc4c(-c5ccc(O)cc5)oc5cc(O)cc(O)c5c4=O)OC(CO)C(O)C3O)OC(COC(=O)C=Cc3ccc(O)c(O)c3)C(O)C2O)C(O)C(O)C1O (stereo not drawn) [Compound 6, kaempferol 3-O-(2’’-O-(2’’’-O-α-rhamnopyranosyl-6’’’-O-(E)-caffeoyl-)-β-glucopyranosyl)-β-glucopyranoside] | Only compounds 11 and 15, which are γ- and δ-lactones, respectively, exhibited significant cytotoxic activity | 
COc1cc(C2Oc3c(OC)cc(CCCO)cc3[C@H]2CO)ccc1O[C@@H]1O[C@@H](C)[C@H](O)[C@@H](O)[C@H]1O (stereo partly drawn) [Compound 8, (7R,8S)-dihydrodehydrodiconiferyl alcohol 4-O-α-rhamnopyranoside] | Only compounds 11 and 15, which are γ- and δ-lactones, respectively, exhibited significant cytotoxic activity | 
CC(O)C1OC(=O)C(C2CC(=O)OC(C)C2O)C1O [Compound 13, (4R,5S,3’S,1’’S,4’R)-4-hydroxy-3-(3’-hydroxy-4’-(1-hydroxyethyl)-oxotetrahydrofuran-5-methyltetrahydropyranone] | Only compounds 11 and 15, which are γ- and δ-lactones, respectively, exhibited significant cytotoxic activity | 
CC(O)C(=O)CCC(=O)OC1C=CC(=O)OC1C (centres unmarked) [Compound 15, 4-O-(5-hydroxy-4-oxohexanoyl) osmundalactone] | significant cytotoxic activity | EC50 (H9c2 cells): 102.7 ± 0.12 µM; reduced metabolic activity in the NRK cells at the highest concentration tested (NRK cells; 200 μM, 72 h): did not detect reduced metabolic activity; EC50 (NRK cells): > 200 µM; EC50 (MOLM13 cells): 111.9 ± 0.07 µM
CC1OC(OC2C(OC3C(Oc4c(-c5ccc(O)c(O)c5)oc5cc(O)cc(O)c5c4=O)OC(CO)C(O)C3O)OC(CO)C(O)C2O)C(O)C(O)C1O (stereo not drawn) [Compound 3, quercetin 3-O-(2’’-O-(2’’’-α-rhamnopyranosyl)-β-glucopyranosyl)-β-glucopyranoside] | Only compounds 11 and 15, which are γ- and δ-lactones, respectively, exhibited significant cytotoxic activity | 
CC(O)C1C=CC(=O)O1 (centres unmarked) [Compound 11, 5-hydroxy-2-hexen-4-olide] | significant cytotoxic activity | EC50 (H9c2 cells): 48.7 ± 0.18 µM; EC50 (NRK cells): 49.6 ± 0.11 µM; EC50 (MOLM13 cells): 46.2 ± 0.07 µM
COc1cc(C2OC2CO)ccc1O (centres unmarked) [Compound 10, epoxyconiferyl alcohol] | Only compounds 11 and 15, which are γ- and δ-lactones, respectively, exhibited significant cytotoxic activity | 
CO[C@H]1CC(=O)O[C@@H]1C(C)O (some centres unmarked) [Compound 12, 3-methoxy-5-hydroxy-4-olide] | Only compounds 11 and 15, which are γ- and δ-lactones, respectively, exhibited significant cytotoxic activity | 
CC1=CC(=O)CC(C)(C)C1CCC(C)O[C@@H]1O[C@H](CO)[C@@H](O)[C@H](O)[C@H]1O (stereo partly drawn) [Compound 14, blumenol C 9-O-β-glucopyranoside] | Only compounds 11 and 15, which are γ- and δ-lactones, respectively, exhibited significant cytotoxic activity | 
CC1OC(OC2C(OC3C(Oc4c(-c5ccc(O)cc5)oc5cc(O)cc(O)c5c4=O)OC(CO)C(O)C3O)OC(CO)C(O)C2O)C(O)C(O)C1O (stereo not drawn) [Compound 2, kaempferol 3-O-(2’’-O-(2’’’-α-rhamnopyranosyl)-β-glucopyranosyl)-β-glucopyranoside] | Only compounds 11 and 15, which are γ- and δ-lactones, respectively, exhibited significant cytotoxic activity | 
